Reference: PubChem BioAssay AID1259411 (Chemical Carcinogenesis Research Information System (CCRIS), 2018)
Activity calls are given as the source filed them. No rule for the calls is given here.

Test system: rodent carcinogenicity bioassays, tumor incidence
Test: CCRIS carcinogenicity studies
Details: Dose: 0, Dose: 0
Outline: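 Archive of carcinogenicity, mutagenicity, tumor promotion and tumor inhibition results drawn from journals, NCI reports and other sources, expert-reviewed; covers 1985-2011 and is no longer updated.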

SMILES: O=NN1CCOC(O)C1 (centres undefined)
- carcinogen call (Species: MOUSE, Strain/Sex: STRAIN-A/FEMALE, Route: ORAL, 0.2 UMOL/ML IN DRINKING WATER FOR 10 WK (TOTAL DOSE: 0; 53 UMOL) FOLLOWED BY TAP WATER FOR 20 WK (STUDY DURATION: 30, 0.2 UMOL/ML IN DRINKING WATER FOR 10 WK (TOTAL DOSE: 0; 53 UMOL) FOLLOWED BY TAP WATER FOR 20 WK (STUDY DURATION: 30, Tumor Site: Type of Lesion: LUNG: TUMORS): active; positive
- carcinogen call (Species: RAT, Strain/Sex: F344/FEMALE, Route: GAVAGE, 22 MG/WK FOR A TOTAL DOSE OF 8.5 MMOL (STUDY DYRATION: 110 WK), Tumor Site: Type of Lesion: LIVER: TUMOR, LUNG: TUMOR): active; positive
- carcinogen call (Species: RAT, Strain/Sex: F344/FEMALE, Route: ORAL, 15, 30 MG/L IN DRINKING WATER 5 D/WK FOR 50 WK (TOTAL DOSE: 0; 0.6; 1.2 MMOL) (STUDY DURATION: 124 WK), 15, 30 MG/L IN DRINKING WATER 5 D/WK FOR 50 WK (TOTAL DOSE: 0; 0.6; 1.2 MMOL) (STUDY DURATION: 124 WK)): inactive; negative

SMILES: c1ccc2c(c1)ccc1c2ccc2c3ccccc3ccc21
- carcinogen call (Species: MOUSE, Strain/Sex: NMRI/FEMALE, Route: DERMAL, 136, 448, 1358 NMOL (TOTAL DOSE) APPLIED AS 1 DROP OF ACETONE SOLUTION 3/WK FOR DURATION OF STUDY (STUDY DURATION: 11, 136, 448, 1358 NMOL (TOTAL DOSE) APPLIED AS 1 DROP OF ACETONE SOLUTION 3/WK FOR DURATION OF STUDY (STUDY DURATION: 11, Tumor Site: Type of Lesion: SKIN: PAPILLOMA): active; positive
- carcinogen call (Species: MOUSE, Strain/Sex: NMRI/FEMALE, Route: SUBCUTANEOUS, 36, 40, 108, 308, 399 NMOL IN TRICAPRYLIN ONCE (STUDY DURATION: 112 WK), 36, 40, 108, 308, 399 NMOL IN TRICAPRYLIN ONCE (STUDY DURATION: 112 WK), Tumor Site: Type of Lesion: INJECTION SITE: FIBROSARCOMA): active; positive
- carcinogen call (Species: MOUSE, Strain/Sex: NMRI/FEMALE, Route: SUBCUTANEOUS, 40, 400 NMOL IN 0.05 ML OF AN AQUEOUS SOLUTION CONTAINING 1% (W/W) GELATIN 0.9% (W/W) SODIUM CHLORIDE AND 0.4% (W/W), 40, 400 NMOL IN 0.05 ML OF AN AQUEOUS SOLUTION CONTAINING 1% (W/W) GELATIN 0.9% (W/W) SODIUM CHLORIDE AND 0.4% (W/W), Tumor Site: Type of Lesion: LUNG: ADENOMA): active; positive

SMILES: O=C1NS(=O)(=O)c2ccccc21
- carcinogen call (Species: MONKEY, Strain/Sex: AFRICAN GREEN, RHESUS, CYNOMOLGUS, HYBRID/MALE, FEMALE, Route: ORAL, 25 MG/KG BW IN FOOD 5 D/WK FOR DURATION OF STUDY (STUDY DURATION: 24 YR)): inactive; negative
- carcinogen call (Species: RAT, Strain/Sex: ANALBUMINEMIC/MALE, Route: ORAL, 5% IN DIET FOR 80 WK (STUDY DURATION: 80 WK)): inactive; negative
- carcinogen call (Species: RAT, Strain/Sex: SPRAGUE-DAWLEY/MALE, Route: ORAL, 5% IN DIET FOR 80 WK (STUDY DURATION: 80 WK)): inactive; negative
